According to PMC9780942, “Antimicrobial Activity and Immunomodulatory Properties of Acidocin A, the Pediocin-like Bacteriocin with the Non-Canonical Structure” (Membranes, 2022):
Positions of bridges follow the written chain, without caps; N, C: chain ends. No end group written: not given here.

Experiments:
L. lactis MK43 = assay: Antibacterial activity assay (MIC), two-fold serial dilutions in liquid medium; assay type: cell-based; settings: for Minimum inhibitory concentration in the presence of NaCl: MHB supplemented with 0.9% NaCl; for Minimum Inhibitory Concentration: MHB, 0.1% BSA, 37 °C, 24 h, no visible growth
Protocol: (§1) Antibacterial activity of recombinant bacteriocins against a number of Gram-positive and Gram-negative bacteria (Table S2) was determined by the method of two-fold serial dilutions in a liquid medium. Two-fold serial dilutions of bacteriocins were prepared in sterile 96-well flat-bottom polystyrene microplates (Eppendorf, Hamburg, Germany) (Cat. No. 0030730.011) in a volume of 50 µL of sterile 0.1% bovine serum albumin (BSA) (SERVA Electrophoresis GmbH, Heidelberg, Germany) to prevent non-specific sorption of peptides to the surface of the plate wells [23]. Mid-log phase bacterial cultures were diluted with the 2x Mueller-Hinton broth (MHB) (Sigma-Aldrich, St. Louis, MO, USA) to a final cell concentration of 10^6 colony forming units (CFU) per mL. To determine the activity of bacteriocins against Listeria and Enterococci, 3% tryptic soy broth (TSB) (Merck-Millipore, Burlington, MA, USA) was used instead of MHB. Aliquots of 50 μL of diluted bacterial suspensions were added to each well of the plate, which was then incubated at 37 °C and 950 rpm for 24 h using thermostatable plate shaker PST-60HL-4 (Biosan, Riga, Latvia). As a negative control, 50 µL of the sterile growth medium (2xMHB or 6% TSB) was added to the wells containing 50 µL of 0.1% BSA. The values of the minimum inhibitory concentrations (MIC) were determined as the minimum concentration of the peptide, at which there was no visible growth of bacterial culture. Incubation for 2 h with 20 µg/mL chromogenic substrate resazurin (Sigma-Aldrich, St. Louis, MO, USA) was used to detect viable bacterial cells if they were difficult to visually detect. To study the effect of inorganic salts on the antimicrobial activity of bacteriocins, antibacterial activity assay was carried out in MHB medium supplemented with 0.9% NaCl.

tested bacterial strains = assay: Antibacterial activity assay (MIC), average change over the tested strains; assay type: cell-based
Protocol: as §1, with “As a negative control, 50 µL of the sterile growth medium (2xMHB or 6% TSB) was added to the wells containing 50 µL of 0.1% BSA.” left out, “Incubation for 2 h with 20 µg/mL chromogenic substrate resazurin (Sigma-Aldrich, St. Louis, MO, USA) was used to detect viable bacterial cells if they were difficult to visually detect. To study the effect of inorganic salts on the antimicrobial activity of bacteriocins, antibacterial activity assay was carried out in MHB medium supplemented with 0.9% NaCl.” left out

E. coli ATCC 25922 = assay type: cell-based; settings: ATCC 25922, 24 h
Protocol: as §1

E. coli ML-35p = assay type: cell-based; settings: 24 h
Protocol: as §1

B. subtilis B-886 = assay type: cell-based; settings: B-886, 24 h
Protocol: as §1

M. luteus Ac-2229 = assay type: cell-based; settings: Ac-2229, 24 h
Protocol: as §1

M. phlei Ac-1221 = assay type: cell-based; settings: 24 h
Protocol: as §1

A. baumannii XDR CI 2675 = assay type: cell-based; settings: XDR CI 2675, 24 h
Protocol: as §1

B. licheniformis B-511 = assay type: cell-based; settings: 24 h
Protocol: as §1

E. coli SQ110 = assay type: cell-based; settings: SQ110, 24 h
Protocol: as §1

E. coli XDR CI 1057 = assay type: cell-based; settings: XDR CI 1057, 24 h
Protocol: as §1

S. aureus 209P = assay type: cell-based; settings: 24 h
Protocol: as §1

[1] = tested on: P. aeruginosa MDR CI 1995; assay type: cell-based; settings: MDR CI 1995, 24 h
Protocol: as §1

L. lactis MK66 = assay type: cell-based; settings: MK66, 24 h
Protocol: as §1

L. monocytogenes EGD = assay type: cell-based, Listeria monocytogenes; settings: 24 h
Protocol: as §1

[2] = tested on: E. coli ML-35p outer membrane; assay: Outer membrane permeability assay with nitrocefin; assay type: cell-based; settings: PBS pH 7.4 with NaCl, 35 °C, absorbance 492 nm, three independent experiments
Protocol: (§2) The ability of the peptides to disrupt the integrity of bacterial membranes was assessed using chromogenic substrates that are unable to enter the intact cell. For these assays, E. coli strain ML-35p was chosen that constitutively expresses β-lactamase (secreted into the periplasmic space), β-galactosidase (that is active in cytoplasm), and lacks lactose permease. Nitrocefin, which is a substrate for lactamase, served as an indicator of increased outer membrane permeability. o-Nitrophenyl-β-D-galactopyranoside (ONPG), a substrate for […], was used to assess the integrity of the cytoplasmic membrane. The bacterial cultures were grown to stationary phase in 3% TSB medium at 37 °C overnight. The cells were washed three times with cold 10 mM phosphate-buffered saline (PBS), pH 7.4 ([…], 2.7 mM KCl, 10 mM Na2HPO4, 1.76 mM KH2PO4), and diluted to the concentration of 3.3 × 10^7 CFU/mL with 10 mM PBS (pH 7.4), containing increased concentration of NaCl (1.2%, or 205 mM) and dissolved nitrocefin (Merck-Millipore, Burlington, MA, USA) or ONPG (AppliChem GmbH, Darmstadt, Germany). […] The plate was incubated at 35 °C, 500 rpm, and the absorbance of the hydrolysis products of ONPG or nitrocefin was measured spectrophotometrically at regular intervals at 405 nm or 492 nm, respectively, using AF2200 microplate reader (Eppendorf, Hamburg, Germany). […]

[3] = tested on: E. coli ML-35p cytoplasmic membrane; assay: Cytoplasmic membrane permeability assay with ONPG; assay type: cell-based; settings: PBS pH 7.4 with NaCl, 35 °C, absorbance 405 nm, three independent experiments
Protocol: as §2

Row | Sequence | Minimum inhibitory concentration in the presence of NaCl (L. lactis MK43) | Minimum Inhibitory Concentration (L. lactis MK43) | Increase of MIC values on average compared to AcdA(dT) and acidocin A (tested bacterial strains) | Minimum Inhibitory Concentration (E. coli ATCC 25922) | Minimum Inhibitory Concentration (E. coli ML-35p) | Minimum inhibitory concentration in the presence of NaCl (E. coli ML-35p) | Minimum Inhibitory Concentration (B. subtilis B-886) | Minimum inhibitory concentration in the presence of NaCl (B. subtilis B-886) | Minimum Inhibitory Concentration (M. luteus Ac-2229) | Minimum Inhibitory Concentration (M. phlei Ac-1221) | Minimum Inhibitory Concentration (A. baumannii XDR CI 2675) | Minimum Inhibitory Concentration (B. licheniformis B-511) | Minimum inhibitory concentration in the presence of NaCl (B. licheniformis B-511) | Minimum Inhibitory Concentration (E. coli SQ110) | Minimum Inhibitory Concentration (E. coli XDR CI 1057) | Minimum Inhibitory Concentration (S. aureus 209P) | Minimum Inhibitory Concentration [1] | Minimum Inhibitory Concentration (L. lactis MK66) | Minimum inhibitory concentration in the presence of NaCl (L. lactis MK66) | Minimum Inhibitory Concentration (L. monocytogenes EGD) | further results
1 | KTYYGNGVHCTKKSLWGKVRLKNVIPGTLSRKQSLPIKQDLKILLGWATGAFGKTFH [AcdA(dT,C31S)] | > 32 µM | 2 µM | 2–4 fold | 8 µM | 8 µM | 32 µM | 4 µM | > 32 µM | 16 µM | 4 µM | 16 µM | 4 µM | > 32 µM | 8 µM | 16 µM | 32 µM | >32 µM | 1 µM | > 32 µM | >32 µM | Minimum inhibitory concentration in the presence of NaCl (E. coli SQ110): 16 µM
2 | KTYYGNGVHSTKKSLWGKVRLKNVIPGTLCRKQSLPIKQDLKILLGWATGAFGKTFH [AcdA(dT,C11S)] | > 32 µM | 4 µM | 2–4 fold | 8 µM | 4 µM | 32 µM | 4 µM | > 32 µM | 16 µM | 4 µM | 8 µM | 4 µM | > 32 µM | 4 µM | 16 µM | 32 µM | >32 µM | 1 µM | > 32 µM | >32 µM | Minimum inhibitory concentration in the presence of NaCl (E. coli SQ110): 16 µM
3 | KTYYGTNGVHCTKKSLWGKVRLKNVIPGTLCRKQSLPIKQDLKILLGWATGAFGKTFH (cysteines drawn unpaired) [AcdA (DTT reduced)] |  | 2 µM |  | 8 µM | 4 µM |  | 4 µM |  | 16 µM | 4 µM | 8 µM | 4 µM |  | 4 µM | 16 µM | 16 µM | >32 µM | 1 µM |  | >32 µM | 
4 | KTYYGTNGVHCTKNSLWGKVRLKNVKYDQNTTYIGRLQDILLGWATGAFGKTFH [OR-7(VI)] |  | >32 µM |  | >32 µM | >32 µM |  | 16 µM | > 32 µM | >32 µM | 32 µM | >32 µM | 8 µM | > 32 µM | >64 µM | >64 µM | >32 µM | >32 µM | 4 µM | > 32 µM | >64 µM | Effect on outer membrane integrity (nitrocefin hydrolysis kinetics) [2]: reduced
5 | TYYGTNGVSCNKKGCSVDWGKAISIIGNNSAANLATGGAAGWKS (disulfide 10-15) [AviA(T)] |  | >32 µM |  | >32 µM | >32 µM |  | >32 µM |  | >32 µM | >32 µM | >32 µM | >32 µM |  | >32 µM | >32 µM | >32 µM | >32 µM | >32 µM |  | >32 µM | Effect on cytoplasmic membrane integrity (ONPG hydrolysis kinetics) [3]: melittin >> acidocin A ≈ pediocin box mutants > peptides without a disulfide bond > avicin A >> AviA(T); Effect on outer membrane integrity (nitrocefin hydrolysis kinetics) [2]: with the exception of AviA(T), were able to disrupt its integrity
